Measurements reported in patent US12617812B2, “Platinum(IV) complexes, methods of manufacture, compositions containing, and methods of use thereof” (City University of Hong Kong, priority 2021, dated 2026).

Experiments:
[1] = tested on: Human lung carcinoma A549 cells; test: MTT cytotoxicity test, A549 cells; type: cell-based; conditions: 6 h treatment
Method: (§1) Human lung carcinoma A549 cells (American Type Culture Collection, ATCC), and cisplatin-resistant A549cisR cells (American Type Culture Collection, ATCC) are cultured in DMEM with 10% FBS and 100 µg/mL penicillin/streptomycin. Human ovarian carcinoma A2780 and cisplatin-resistant A2780cisR cells are cultured in RPMI-1640 with 10% FBS, 1% L-Glutamine, and 100 µg/mL penicillin/streptomycin. Human lung fibroblast MRC-5 cells (American Type Culture Collection, ATCC) are cultured in MEM with 10% FBS, 1% NEAA, 1% L-Glutamine, 1% sodium pyruvate, and 100 µg/mL penicillin/streptomycin. For A2780cisR and A549cisR cells, 2 μM of cisplatin is added into the culture medium after the attachment to maintain the resistance. All the cells are cultured at 37° C. in 5% CO2.
(§2) The cytotoxic profiles of the various complexes against selected cell lines are obtained by a 3-(4,5-Dimethylthiazol-2-yl)-2,5-diphenyltetrazolium bromide (MTT) assay. Cells are seeded into 96-well plates at a density of 2,500 cells per well (for A549, and A2780) or 5,000 cells per well (for A549cisR, A2780cisR, and MRC-5) and incubated for 24 h. Cells are then treated with medium containing various concentrations of complexes for 6 h. The medium is replaced by phenol-red free medium. Then cells are irradiated with near-infrared radiation (880 nm, 0.4 W/cm^2) for 80 min. After irradiation, cells are further incubated in fresh medium for 18 h at 37° C. Then, the culture medium is removed, cells are then incubated with FBS free medium containing 1 mg/mL MTT for 2 h. Medium containing MTT is removed and 150 μL DMSO is added to each well. The absorbance is measured at 570 and 630 nm. […]

[2] = tested on: Human lung fibroblast MRC-5 cells; test: MTT cytotoxicity test, MRC-5 cells; type: cell-based; conditions: in the dark with no irradiation, 6 h treatment
Method: as §1
The cytotoxic profiles of the various complexes against selected cell lines are obtained by a 3-(4,5-Dimethylthiazol-2-yl)-2,5-diphenyltetrazolium bromide (MTT) assay. Cells are seeded into 96-well plates at a density of 2,500 cells per well (for A549, and A2780) or 5,000 cells per well (for A549cisR, A2780cisR, and MRC-5) and incubated for 24 h. Cells are then treated with medium containing various concentrations of complexes for 6 h. The medium is replaced by phenol-red free medium. Then cells are irradiated with near-infrared radiation (880 nm, 0.4 W/cm^2) for 80 min. After irradiation, cells are further incubated in fresh medium for 18 h at 37° C. Then, the culture medium is removed, cells are then incubated with FBS free medium containing 1 mg/mL MTT for 2 h. Medium containing MTT is removed and 150 μL DMSO is added to each well. The absorbance is measured at 570 and 630 nm.
Cells are treated with the indicated complex for 6 h, the culture medium is replaced with fresh medium and irradiated with or without blue light for 1 h. Then cells are cultured for another 42 h.

[3] = tested on: cisplatin-resistant A2780cisR cells; test: MTT cytotoxicity test, A2780cisR cells; type: cell-based, Human; conditions: 6 h treatment
Method: as §1, §2

[4] = tested on: Human ovarian carcinoma A2780 cells; test: MTT cytotoxicity test, A2780 cells; type: cell-based; conditions: 6 h treatment
Method: as §1, §2

[5] = tested on: cisplatin-resistant A549cisR cells; test: MTT cytotoxicity test, A549cisR cells; type: cell-based, Human; conditions: 6 h treatment
Method: as §1, §2

[6] = A549*, in the dark with no irradiation
[7] = A2780cisR*, in the dark with no irradiation
[8] = in the dark with no irradiation
[9] = mark * (dark), position of the irradiated row
[10] = A549cisR*, in the dark with no irradiation

## N.N.O=C([O-])C1(C(=O)[O-])CCC1.[Pt+2] [Carboplatin, reference compound]
[1]; A549**, with irradiation
  IC50: 435 ± 42.9 µM
[1]; [6]
  IC50: 418 ± 33.6 µM
[2]
  IC50: 690 ± 38.5 µM
[3]; A2780cisR**, with irradiation
  IC50: 630 ± 43.2 µM
[3]; [7]
  IC50: 668 ± 51.1 µM
[4]; [8]
  IC50: 303 ± 34.8 µM
[4]; [9]
  IC50: 336 ± 43.8 µM
[5]; A549cisR**, with irradiation
  IC50: > 700 µM
[5]; [10]
  IC50: > 700 µM

## CCN(CC)c1ccc2cc(C(=O)/C=C/c3ccc(N(C)CCC(=O)[O][Pt]4([NH2])([NH2])([O]C(=O)Cc5cccc6c(=O)c7ccc(C)c(C)c7oc56)[O]C(=O)C5(CCC5)C(=O)[O]4)cc3)c(=O)oc2c1 [Complex 6]
[1]; A549**, with irradiation
  IC50: 11.6 ± 1.2 µM
[1]; [6]
  IC50: > 50 µM
[2]
  IC50: > 50 µM
[3]; A2780cisR**, with irradiation
  IC50: 12.7 ± 1.9 µM
[3]; [7]
  IC50: > 50 µM
[4]; [8]
  IC50: > 50 µM
[4]; [9]
  IC50: 11.4 ± 1.5 µM
[5]; A549cisR**, with irradiation
  IC50: 12.6 ± 2.1 µM
[5]; [10]
  IC50: > 50 µM

## O=C1[O][Pt]2([NH][C@@H]3CCCC[C@H]3[NH]2)[O]C1=O [Oxaliplatin, reference compound]
[1]; A549**, with irradiation
  IC50: 104 ± 8.2 µM
[1]; [6]
  IC50: 97.2 ± 7.5 µM
[2]
  IC50: 213 ± 16.4 µM
[3]; A2780cisR**, with irradiation
  IC50: 254 ± 18.2 µM
[3]; [7]
  IC50: 250 ± 12.6 µM
[4]; [8]
  IC50: 86.5 ± 7.7 µM
[4]; [9]
  IC50: 73.7 ± 5.9 µM
[5]; A549cisR**, with irradiation
  IC50: 269 ± 16.3 µM
[5]; [10]
  IC50: 258 ± 11.6 µM

## CCN(CC)c1ccc2cc(C(=O)/C=C/c3ccc(N(C)CCC(=O)[O][Pt]4([NH2])([NH2])([OH])[O]C(=O)C5(CCC5)C(=O)[O]4)cc3)c(=O)oc2c1 [Complex 4]
[1]; A549**, with irradiation
  IC50: 17.7 ± 5.1 µM
[1]; [6]
  IC50: > 50 µM
[2]
  IC50: > 50 µM
[3]; A2780cisR**, with irradiation
  IC50: 11.2 ± 2.8 µM
[3]; [7]
  IC50: > 50 µM
[4]; [8]
  IC50: > 50 µM
[4]; [9]
  IC50: 10.7 ± 2.2 µM
[5]; A549cisR**, with irradiation
  IC50: 18.9 ± 4.3 µM
[5]; [10]
  IC50: > 50 µM
